Read-outs that look alike come from different tables or passages of the source.
Legend:
[1] = test system: patients with heart failure and reduced ejection fraction; type: in vivo, human; settings: for Creatinine, change from baseline, mean / Heart rate, change from baseline, mean / Potassium, change from baseline, mean / Systolic blood pressure, change from baseline, mean / Troponin, change from baseline, median: N = 4110
Protocol: All eligible participants were randomized 1:1 to oral administration of either placebo or omecamtiv mecarbil (pharmacokinetic-guided dosing: 25, 37.5 or 50 mg) twice daily. Pre-dose plasma concentrations of omecamtiv mecarbil were measured at weeks 2 and 6 with respective dose adjustments on weeks 4 and 8. The patient and investigator were blinded to the plasma concentrations and dispensed dose. The full schedule of assessments is provided in the protocol available at NEJM.org. Study drug was temporarily withheld if the participant experienced clinical signs or symptoms consistent with acute myocardial infarction or ischemia.
Other outcomes of interest included the effects of omecamtiv mecarbil on vital signs and selected laboratory values (Table 3).
Continuous variables were summarized as means±standard deviations (SD) or medians and first and third quartiles (Q1, Q3), as appropriate. Categorical variables were summarized as counts and percentages. […] The change from baseline on NT-proBNP analysis included all participants who underwent randomization. The difference column is the exponentiated change from baseline on the log scale using a mixed model containing the log baseline value, region, baseline eGFR, scheduled visit, treatment group and interaction of treatment with scheduled visit.

[2] = target: T1, CYP2C8 (Homo sapiens, UniProt P10632); test: In vitro inhibition by OM; type: in vitro ADME; settings: result in words
T1 sequence (P10632 1-490): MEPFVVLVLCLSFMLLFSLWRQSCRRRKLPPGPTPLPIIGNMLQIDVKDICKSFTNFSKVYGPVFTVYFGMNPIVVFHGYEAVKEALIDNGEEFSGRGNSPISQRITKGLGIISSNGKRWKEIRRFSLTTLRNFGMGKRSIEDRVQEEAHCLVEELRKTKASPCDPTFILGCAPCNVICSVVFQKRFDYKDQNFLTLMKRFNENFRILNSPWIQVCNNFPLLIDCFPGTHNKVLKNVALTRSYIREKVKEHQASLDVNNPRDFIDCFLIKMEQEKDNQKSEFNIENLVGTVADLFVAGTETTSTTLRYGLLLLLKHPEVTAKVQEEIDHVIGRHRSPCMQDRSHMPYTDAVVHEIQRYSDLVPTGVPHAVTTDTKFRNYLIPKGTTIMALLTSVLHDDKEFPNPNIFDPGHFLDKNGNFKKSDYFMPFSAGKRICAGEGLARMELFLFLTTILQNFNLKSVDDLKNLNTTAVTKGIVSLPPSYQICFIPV

[3] = Drug interactions: change in OM pharmacokinetics in the presence of co-administered drugs; type: in vivo, human
[4] = CYP2D6 genotype: PM (N = 8) versus EM (N = 16)
[5] = with P-gp inhibitor amiodarone 600 mg SD, OM 50 mg SD, vs OM alone
[6] = with moderate CYP3A inhibitor diltiazem 240 mg QD × 8 days, OM 10 mg SD, vs OM alone
[7] = with pH modifying agent omeprazole 40 mg QD × 6 days, OM 50 mg SD, vs OM alone
[8] = with strong CYP3A and P-gp inhibitor ketoconazole 200 mg BID × 8 days, OM 10 mg SD, vs OM alone

## COC(=O)N1CCN(Cc2cccc(NC(=O)Nc3ccc(C)nc3)c2F)CC1 [omecamtiv mecarbil]
[1]; Week 24
  Creatinine, change from baseline, difference vs placebo: 0.007 mg/dL
  Heart rate, change from baseline, difference vs placebo: −1.61 bpm
  Potassium, change from baseline, difference vs placebo: 0.002 mmol/L
  Systolic blood pressure, change from baseline, difference vs placebo: −0.13 mmHg
  Creatinine, change from baseline, mean: 0.03 mg/dL
  Heart rate, change from baseline, mean: −2.1 bpm
  Potassium, change from baseline, mean: -0.01 mmol/L
  Systolic blood pressure, change from baseline, mean: 1.4 mmHg
  Troponin, change from baseline, median: 0.004 ng/mL
[1]; Week 24, all randomized participants
  NT-proBNP, change from baseline, median: -251 pg/mL
[1]; Week 24, lower limit of quantification 0.010 ng/mL
  Troponin, change from baseline, difference vs placebo: 0.004 ng/mL
[1]; Week 24, mixed model
  NT-proBNP, exponentiated change from baseline on the log scale, omecamtiv mecarbil vs placebo: 0.90
[1]; Week 24, result in words
  NT-proBNP concentrations compared to placebo: significantly decreased
[1]; Week 48
  Creatinine, change from baseline, difference vs placebo: 0.010 mg/dL
  Heart rate, change from baseline, difference vs placebo: −1.75 bpm
  Potassium, change from baseline, difference vs placebo: -0.007 mmol/L
  Systolic blood pressure, change from baseline, difference vs placebo: 0.16 mmHg
  Troponin, change from baseline, difference vs placebo: 0.002 ng/mL
  Creatinine, change from baseline, mean: 0.06 mg/dL
  Heart rate, change from baseline, mean: −2.0 bpm
  Potassium, change from baseline, mean: -0.03 mmol/L
  Systolic blood pressure, change from baseline, mean: 2.0 mmHg
  Troponin, change from baseline, median: 0.002 ng/mL
[1]; at 24 and 48 weeks, result in words
  Heart rate compared to placebo: small but significant decrease
[1]; at 24 or 48 weeks, result in words
  Change in systolic blood pressure, omecamtiv mecarbil vs placebo: no significant difference
[1]; during the course of the trial, result in words
  Potassium or creatinine concentrations compared to placebo: no change
[2]
  Inhibition of CYP2C8: inhibitor
[3]; [4]
  % Change of OM AUC (↑ = increase): ↑30%
  % Change of OM Cmax (↓ = decrease): ↓18%
  Mean Ratio of OM AUC (90% CI): 1.30 (0.93-1.82)
  Mean Ratio of OM Cmax (90% CI): 0.82 (0.63-1.07)
[3]; [5]
  % Change of OM AUC (↑ = increase): ↑ 21%
  Mean Ratio of OM AUC (90% CI): 1.21 (1.08-1.36)
  Mean Ratio of OM Cmax (90% CI): 1.08 (0.96-1.22)
[3]; [6]
  % Change of OM Cmax (↓ = decrease): ↓21%
  Mean Ratio of OM AUC (90% CI): 1.08 (0.97-1.22)
  Mean Ratio of OM Cmax (90% CI): 0.79 (0.60-1.04)
[3]; [7]
  Mean Ratio of OM AUC (90% CI): 0.95 (0.82-1.09)
  Mean Ratio of OM Cmax (90% CI): 1.01 (0.95-1.07)
[3]; [8]
  % Change of OM AUC (↑ = increase): ↑51%
  Mean Ratio of OM AUC (90% CI): 1.51 (1.20-1.91)
  Mean Ratio of OM Cmax (90% CI): 1.03 (0.76-1.40)
